The nature of experiment [1]: Clinical monitoring of an MS patient after a treatment flash. The experiment is classed as in vivo, human. Particulars: MS patient No. 2, progressive form, flash on D1 after attack; worsening signs at D60. The text has this:
(§1) Urines of this patient were collected during the progression of their disease. The patient was hospitalized on D0 for an attack.

For experiment [2], the system named is GM2AP and Saposin B proteins in the urines. Kind of experiment: Elisa assay of GM2AP and Saposin B in the urine of an MS patient after a treatment flash. The class given is in vivo, human. Particulars: MS patient No. 2, progressive form, up to 23 days; increase again, high at D60.
Excerpt: as §1

As for `O=P1(N(CCCl)CCCl)NCCCO1` (centres unmarked) [Endoxan, cyclophosphamide], the “clinical effect of the flash” value in experiment [1] is recorded as “clinical improvement”. The “GM2AP and Saposin B concentrations in urine over time after the flash” value in experiment [2] was “decrease gradually over time”.

The values above are taken from US7510843B2, “Use of a polypeptide for detecting, preventing or treating a pathological condition associated with a degenerative, neurological or autoimmune disease” (Biomerieux S.A., priority 1999, dated 2009).
